Here are results for 7 compounds from ChEMBL document CHEMBL1201862, “PubChem BioAssay data set” (2004).

Usually IC50 stands for the concentration needed to halve the response being measured. Usually EC50 stands for the concentration giving half of the maximal effect. A word on the AC50: it is the midpoint of the concentration-response curve, whichever way the signal moves.

The source made the active and inactive calls.

A short description of experiment [1]: Late stage assay provider results from the probe development effort to identify inhibitors of the Plasmodium falciparum M18 Aspartyl Aminopeptidase (M18AAP): radiolabel-based cell-based dose response assay to identify compounds that inhibit P. falciparum growth in RBCs, Set 2.. It is filed as functional.
Experiment [2] concerns the target E3 ubiquitin-protein ligase UHRF1 (Homo sapiens, UniProt Q96T88). In words: Counterscreen for inhibitors of 5-meCpG-binding domain protein 2 (MBD2): TRFRET-based biochemical high throughput dose response assay to identify inhibitors of binding of ubiquitin-like with PHD and ring finger domains 1 (UHRF1) to methylated oligonucleotide. Background: A counterscreen serves to expose hits that act by an unwanted route or on another target.

A short description of experiment [3]: fluconazole-exposed Candida albicans growth modulators – fluorescence, retest, confirmation (AID 2467). It is filed as functional, cell-based.
Experiment [4] in a line: NIH-3T3 fibroblast cytotoxicity, dose response, cytotoxicity control, cell-based, fluorescence, Alamar Blue, secondary assay (AID 2327).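 Note: NIH-3T3 mouse fibroblasts cultured with fluconazole at 8 µg/mL.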 It is filed as functional.
The target in experiment [5] is T1, Methionyl-tRNA synthetase, putative (Trypanosoma brucei brucei, UniProt Q38C91). It is filed as functional, Trypanosoma brucei brucei strain 927/4 GUTat10.1.
Experiment [6] has as its target T1, Methionyl-tRNA synthetase, putative. It is filed as functional, Trypanosoma brucei brucei strain 927/4 GUTat10.1. The source holds these as a separate data set.
Experiment [7] can be described thus: Counterscreen for inhibitors of Trypanosoma brucei methionyl tRNA synthetase (MetRS): Luminescence-based cell-based high throughput dose response assay to identify compounds that are cytotoxic to Jurkat human T lymphocyte cells. Format: functional.
Experiment [8] is described as follows: Late stage counterscreen for inhibitors of Trypanosoma brucei methionyl tRNA synthetase (MetRS): Luminescence-based cell-based high throughput dose response assay to identify compounds that are cytotoxic to Jurkat human T lymphocyte cells. It is filed as functional.
For experiment [9], the target named is T2, CAAX prenyl protease 2 (Saccharomyces cerevisiae S288c, UniProt Q03530).
T2 sequence (Q03530 whole entry): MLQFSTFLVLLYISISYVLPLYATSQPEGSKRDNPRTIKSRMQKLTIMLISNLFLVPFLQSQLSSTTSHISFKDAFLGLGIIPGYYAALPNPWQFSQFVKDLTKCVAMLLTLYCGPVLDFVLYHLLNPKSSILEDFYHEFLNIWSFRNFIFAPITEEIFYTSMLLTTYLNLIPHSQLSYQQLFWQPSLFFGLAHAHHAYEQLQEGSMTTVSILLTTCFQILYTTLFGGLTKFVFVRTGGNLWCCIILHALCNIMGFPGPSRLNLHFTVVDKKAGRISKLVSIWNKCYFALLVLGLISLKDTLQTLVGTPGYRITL
It is filed as biochemical.

The target in the next experiment is Trypsin (Sus scrofa, UniProt P00761). In words: trypsin protease activity blockade – biochemical, quenched peptide fluorescence, cherry-pick, selectivity assay for Rce1 protease inhibitor project, dose response (AID 488789).
The target of experiment [10] is T3, CAAX prenyl protease 2 (Homo sapiens, UniProt Q9Y256).
T3 sequence (Q9Y256 whole entry): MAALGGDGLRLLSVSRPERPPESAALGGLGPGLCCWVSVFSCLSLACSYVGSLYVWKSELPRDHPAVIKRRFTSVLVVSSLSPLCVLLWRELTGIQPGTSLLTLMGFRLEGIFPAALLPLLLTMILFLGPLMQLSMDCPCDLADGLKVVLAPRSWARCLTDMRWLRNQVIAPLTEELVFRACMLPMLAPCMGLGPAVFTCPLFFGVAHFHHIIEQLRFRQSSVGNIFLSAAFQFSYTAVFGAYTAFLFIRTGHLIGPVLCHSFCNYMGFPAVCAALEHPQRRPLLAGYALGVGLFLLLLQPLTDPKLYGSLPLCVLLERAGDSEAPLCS
The experiment can be described thus: inhibition of Ras-converting CAAX protease Rce1 – biochemical, yeast membranes, quenched-peptide fluorescence, cherry-pick, dose response (AID 588849).

The next experiment concerns the target Kallikrein-7 (Homo sapiens, UniProt P49862). The experiment can be described thus: Fluorescence Intensity-based biochemical primary high throughput dose response assay to identify activators of kallikrein-7 (K7) zymogen.
The nature of experiment [11]: antimalarial activity against Dd2 parasites – SYBR Green fluorescence, erythrocytes, dry powder, set 2, dose response (AID 1159574). It is filed as functional, cell-based.
The target in experiment [12] is NAD-dependent protein deacylase sirtuin-5, mitochondrial (Homo sapiens, UniProt Q9NXA8). In words: sirtuin-5 deacylation blockers, concentration series – biochemical, fluorescence imaging, cherry-pick, set 5, dose response (AID 720591).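 Note: desuccinylation of succinyl peptide AMC substrate read as fluorescence after trypsin release; potency of inhibitors that lower fluorescence and may act on trypsin instead.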
Experiment [13] deals with RNA-editing ligase 1, mitochondrial (Trypanosoma brucei brucei, UniProt P86926). The experiment can be described thus: inhibition of trypanosome RNA editing ligase – biochemical, fluorescence, Trypanosoma brucei, dose response (AID 1117295). It is filed as functional.
Chain of RNA-editing ligase 1, mitochondrial (P86926 whole entry): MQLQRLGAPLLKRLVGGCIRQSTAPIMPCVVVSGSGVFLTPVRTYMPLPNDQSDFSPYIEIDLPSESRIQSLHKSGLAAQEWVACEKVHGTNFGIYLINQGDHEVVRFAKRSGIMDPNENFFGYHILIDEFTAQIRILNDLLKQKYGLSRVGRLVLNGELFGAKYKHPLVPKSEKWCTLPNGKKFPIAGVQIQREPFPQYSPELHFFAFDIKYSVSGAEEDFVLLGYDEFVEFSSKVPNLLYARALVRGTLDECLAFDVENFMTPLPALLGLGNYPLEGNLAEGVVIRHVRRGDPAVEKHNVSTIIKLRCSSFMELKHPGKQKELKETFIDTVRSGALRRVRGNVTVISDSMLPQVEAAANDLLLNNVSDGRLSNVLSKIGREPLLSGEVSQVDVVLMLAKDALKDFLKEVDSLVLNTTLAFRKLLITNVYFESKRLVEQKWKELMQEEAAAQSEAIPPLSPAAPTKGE

T1 sequence (Q38C91 whole entry): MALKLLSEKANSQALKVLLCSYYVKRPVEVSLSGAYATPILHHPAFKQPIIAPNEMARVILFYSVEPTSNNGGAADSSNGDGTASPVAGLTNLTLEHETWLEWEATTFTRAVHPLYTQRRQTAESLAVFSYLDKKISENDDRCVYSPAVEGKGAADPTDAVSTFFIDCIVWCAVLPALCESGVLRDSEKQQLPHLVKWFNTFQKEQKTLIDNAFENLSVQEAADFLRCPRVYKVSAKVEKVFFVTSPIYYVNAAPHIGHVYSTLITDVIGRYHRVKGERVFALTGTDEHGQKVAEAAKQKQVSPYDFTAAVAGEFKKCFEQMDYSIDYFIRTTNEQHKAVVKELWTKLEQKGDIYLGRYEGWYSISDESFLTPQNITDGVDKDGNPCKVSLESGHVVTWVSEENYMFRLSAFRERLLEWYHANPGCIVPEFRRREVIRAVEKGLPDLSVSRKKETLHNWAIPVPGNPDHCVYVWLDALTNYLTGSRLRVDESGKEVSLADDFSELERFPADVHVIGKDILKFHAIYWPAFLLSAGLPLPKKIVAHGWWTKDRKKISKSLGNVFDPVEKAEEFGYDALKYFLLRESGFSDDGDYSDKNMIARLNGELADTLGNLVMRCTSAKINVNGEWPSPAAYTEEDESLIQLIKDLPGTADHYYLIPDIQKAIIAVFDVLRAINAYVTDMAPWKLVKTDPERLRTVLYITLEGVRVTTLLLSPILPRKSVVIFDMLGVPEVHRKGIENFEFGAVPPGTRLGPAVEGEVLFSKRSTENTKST
Chain of Trypsin (P00761 whole entry): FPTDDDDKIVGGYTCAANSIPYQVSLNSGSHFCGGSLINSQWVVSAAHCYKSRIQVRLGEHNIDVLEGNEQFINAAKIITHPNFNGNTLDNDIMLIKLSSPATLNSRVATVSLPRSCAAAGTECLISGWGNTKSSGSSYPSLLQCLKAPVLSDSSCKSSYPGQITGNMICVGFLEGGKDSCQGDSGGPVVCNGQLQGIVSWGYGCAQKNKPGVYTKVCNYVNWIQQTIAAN
Chain of Kallikrein-7 (P49862 whole entry): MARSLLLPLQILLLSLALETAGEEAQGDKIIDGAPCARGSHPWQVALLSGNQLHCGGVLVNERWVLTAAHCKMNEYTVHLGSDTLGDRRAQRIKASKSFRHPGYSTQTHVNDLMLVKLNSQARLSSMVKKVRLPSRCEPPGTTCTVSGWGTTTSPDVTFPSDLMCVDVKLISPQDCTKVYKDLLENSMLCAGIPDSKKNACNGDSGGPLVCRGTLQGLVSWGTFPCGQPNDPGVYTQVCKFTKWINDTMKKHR
Chain of E3 ubiquitin-protein ligase UHRF1 (Q96T88 whole entry, the tested form may be a part): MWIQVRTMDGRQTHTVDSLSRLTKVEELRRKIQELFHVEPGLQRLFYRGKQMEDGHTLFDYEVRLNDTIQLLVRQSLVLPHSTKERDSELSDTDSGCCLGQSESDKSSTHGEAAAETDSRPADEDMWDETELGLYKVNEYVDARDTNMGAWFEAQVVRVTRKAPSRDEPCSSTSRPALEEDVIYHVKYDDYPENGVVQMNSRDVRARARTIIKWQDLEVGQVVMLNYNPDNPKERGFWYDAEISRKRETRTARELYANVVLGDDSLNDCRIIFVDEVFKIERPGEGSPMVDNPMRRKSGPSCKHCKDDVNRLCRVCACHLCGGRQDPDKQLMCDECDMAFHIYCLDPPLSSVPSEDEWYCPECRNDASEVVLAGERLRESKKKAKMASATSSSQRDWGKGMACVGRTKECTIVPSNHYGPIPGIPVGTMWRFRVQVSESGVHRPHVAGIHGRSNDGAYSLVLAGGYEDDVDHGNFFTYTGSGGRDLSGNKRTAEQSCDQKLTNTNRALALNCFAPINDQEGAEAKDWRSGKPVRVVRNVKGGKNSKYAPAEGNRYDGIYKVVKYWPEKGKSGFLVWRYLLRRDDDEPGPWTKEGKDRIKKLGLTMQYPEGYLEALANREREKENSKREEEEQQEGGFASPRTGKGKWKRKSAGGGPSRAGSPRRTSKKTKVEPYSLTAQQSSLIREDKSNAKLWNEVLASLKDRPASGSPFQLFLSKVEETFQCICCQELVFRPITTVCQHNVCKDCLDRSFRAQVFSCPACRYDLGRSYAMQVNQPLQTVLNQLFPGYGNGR
Chain of NAD-dependent protein deacylase sirtuin-5, mitochondrial (Q9NXA8 whole entry): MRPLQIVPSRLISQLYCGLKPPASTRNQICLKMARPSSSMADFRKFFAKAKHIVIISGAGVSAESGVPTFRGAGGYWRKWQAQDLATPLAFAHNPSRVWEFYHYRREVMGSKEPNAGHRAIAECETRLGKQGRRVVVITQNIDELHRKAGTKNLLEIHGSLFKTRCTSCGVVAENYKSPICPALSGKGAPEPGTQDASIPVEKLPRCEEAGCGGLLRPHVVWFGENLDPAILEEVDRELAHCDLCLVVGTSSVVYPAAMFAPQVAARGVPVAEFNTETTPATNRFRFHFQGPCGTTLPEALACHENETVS

For `Oc1ccc(CCCNc2c3ccccc3nc3ccccc23)cc1O`, the IC50 in [1] is 3.7 µM (active).
For `Cc1ccc(-c2cc(-c3ccccc3)cc(-c3ccccc3)[n+]2-c2ccccc2C(=O)O)cc1.[O-][Cl+3]([O-])([O-])[O-]`, the IC50 in experiment [2] is 18.9 µM (inactive). Also, the results for the EC50 in [3] and in [4] were 3.23 µM (inconclusive) and > 160 µM (inactive), respectively.
As to `O=C(Cn1cc(C(=O)C(=O)N2CCOCC2)c2ccccc21)Nc1cccc(C(F)(F)F)c1`, the IC50 in [5] is 0.352 µM (active); in experiment [6], 0.205 µM (active); in [7] it was 77.5 µM (inactive); in experiment [8], > 83.3 µM (inactive).
`Cc1oc2c(CN3CCCC3)c(O)ccc2c(=O)c1-c1ccc(Br)cc1`: the AC50 at CAAX prenyl protease 2 [9] is 12 µM (active); on Trypsin it was 9.06 µM (active); at CAAX prenyl protease 2 [10], 10 µM (active). Further, the EC50 at Kallikrein-7 was > 69.5 µM (inactive).
On to `COc1cccc(C#Cc2ccc([C@@H]3[C@@H](CO)N4C(=O)CN(C(=O)Cc5ccccc5)C[C@@H]34)cc2)c1`, for which the AC50 in [11] was 4.88 µM (active).
On to `CC1=Nc2cc(C(=O)O)ccc2Sc2ccc(Br)cc21`, for which the AC50 in experiment [12] is 18.8 µM (active).
On to `C#CCOCCOCCOCCNc1nc(N2CCN(C(=O)[C@H](CCCCN)n3cc([C@@H](N)CC(C)C)nn3)CC2)nc(N2CCN(C(=O)[C@H](Cc3cc4ccccc4[nH]3)n3cc([C@@H](N)CC(C)C)nn3)CC2)n1`, for which the IC50 in experiment [13] is > 96.6 µM (inactive).
